In US10173968B2, “Bishydrazone-based antifungal agents” (University of Kentucky Research Foundation, priority 2016, dated 2019):
Where two headings read alike, the source gives them in different places.

Columns and labels:
P. aeruginosa ATCC 27853 = assay: Antibacterial MIC, double-dilution method; format: cell-based; conditions: Pseudomonas aeruginosa, ATCC27853
Description: (§1) MIC values were determined against a variety of Gram-positive (strains A-D) and Gram-negative (E-J) bacterial and mycobacterial (K) strains using the double-dilution method, as previously published. Preliminary screening was performed using 500 μM of each compound.

A. baumannii ATCC 19606 = assay: Antibacterial MIC, double-dilution method; format: cell-based; conditions: Acinetobacter baumannii, ATCC19606
Description: as §1

[1] = test system: L. monocytogenes ATCC 19115; assay: Antibacterial MIC, double-dilution method; format: cell-based; conditions: Listeria monocytogenes, ATCC19115, strain B, Gram-positive, read-out: MIC
Description: as §1

MRSA = assay: Antibacterial MIC, double-dilution method; format: cell-based; conditions: Staphylococcus aureus, strain C, Gram-positive, read-out: MIC
Description: as §1

VRE = assay: Antibacterial MIC, double-dilution method; format: cell-based; conditions: Enterococcus, strain D, Gram-positive, read-out: MIC
Description: as §1

S. enterica ATCC 14028 = assay: Antibacterial MIC, double-dilution method; format: cell-based; conditions: Salmonella enterica, ATCC14028
Description: as §1

M. smegmatis MC2-155 = assay: Antibacterial MIC, double-dilution method; format: cell-based; conditions: mycobacterial
Description: as §1

E. coli MC1061 = assay: Antibacterial MIC, double-dilution method; format: cell-based; conditions: Escherichia coli, strain G, Gram-negative, read-out: MIC
Description: as §1

K. pneumoniae ATCC 27736 = assay: Antibacterial MIC, double-dilution method; format: cell-based; conditions: Klebsiella pneumoniae, ATCC27736
Description: as §1

B. subtilis 168 = assay: Antibacterial MIC, double-dilution method; format: cell-based; conditions: Bacillus subtilis, strain A, Gram-positive
Description: as §1

E. cloacae ATCC 13047 = assay: Antibacterial MIC, double-dilution method; format: cell-based; conditions: Enterobacter cloacae, ATCC13047
Description: as §1

C. albicans ATCC 1237 = assay: Antifungal MIC, CLSI M27-A3 microbroth dilution; format: cell-based, Candida albicans; conditions: ITC, and VOR
Description: (§2) In vitro MIC testing was performed according to the CLSI M27-A3 standard microbroth dilution methodology for the susceptibility testing of yeasts with minor modifications.

C. albicans ATCC 10231 = assay: Antifungal MIC, CLSI M27-A3 microbroth dilution; format: cell-based, Candida albicans; conditions: C. albicans ATCC 10231, resistant to FLC, ITC, and VOR
Description: as §2

C. albicans ATCC 2876 = assay: Antifungal MIC, CLSI M27-A3 microbroth dilution; format: cell-based, Candida albicans; conditions: C. albicans ATCC 2876, susceptible to FLC, ITC, and VOR
Description: as §2

C. albicans ATCC 64124 = assay: Antifungal MIC, CLSI M27-A3 microbroth dilution; format: cell-based, Candida albicans; conditions: C. albicans ATCC 64124, resistant to FLC, ITC, and VOR
Description: as §2

C. albicans ATCC 1003 = assay: Antifungal MIC, CLSI M27-A3 microbroth dilution; format: cell-based, Candida albicans
Description: as §2

C. albicans ATCC 90819 = assay: Antifungal MIC, CLSI M27-A3 microbroth dilution; format: cell-based, Candida albicans; conditions: C. albicans ATCC 90819, resistant to FLC, ITC, and VOR
Description: as §2

C. albicans ATCC 2310 = assay: Antifungal MIC, CLSI M27-A3 microbroth dilution; format: cell-based, Candida albicans; conditions: C. albicans ATCC 2310, susceptible to FLC, ITC, and VOR
Description: as §2

[2] = strain I, Gram-negative, converted from μM, read-out: MIC
[3] = strain I, Gram-negative, range 0.5 to 500 μM, read-out: MIC
[4] = strain E, Gram-negative, converted from μM, read-out: MIC
[5] = strain E, Gram-negative, range 0.5 to 500 μM, read-out: MIC
[6] = strain J, Gram-negative, range 0.5 to 500 μM, read-out: MIC
[7] = Mycolicibacterium smegmatis, MC2155, strain K, converted from μM, read-out: MIC
[8] = strain H, Gram-negative, converted from μM, read-out: MIC
[9] = strain H, Gram-negative, range 0.5 to 500 μM, read-out: MIC
[10] = strain F, Gram-negative, converted from μM, read-out: MIC
[11] = strain F, Gram-negative, range 0.5 to 500 μM, read-out: MIC
[12] = Candida albicans, ATCC1237, C. albicans ATCC 1237, resistant to FLC, converted from μg/mL, read-out: MIC
[13] = Candida albicans, ATCC1237, C. albicans ATCC 1237, resistant to FLC, read-out: MIC
[14] = Candida albicans, ATCC10231, converted from μg/mL, read-out: MIC
[15] = Candida albicans, ATCC10231, read-out: MIC
[16] = Candida albicans, ATCC2876, converted from μg/mL, read-out: MIC
[17] = Candida albicans, ATCC2876, read-out: MIC
[18] = Candida albicans, ATCC64124, converted from μg/mL, read-out: MIC
[19] = Candida albicans, ATCC64124, read-out: MIC
[20] = Candida albicans, ATCC1003, C. albicans ATCC 1003, converted from μg/mL, read-out: MIC
[21] = Candida albicans, ATCC1003, read-out: MIC
[22] = Candida albicans, ATCC90819, converted from μg/mL, read-out: MIC
[23] = Candida albicans, ATCC90819, read-out: MIC
[24] = Candida albicans, ATCC2310, converted from μg/mL, read-out: MIC
[25] = Candida albicans, ATCC2310, read-out: MIC
[26] = Mycolicibacterium smegmatis, MC2155, strain K, range 0.5 to 500 μM, read-out: MIC

Row | SMILES | MIC (P. aeruginosa ATCC 27853; [3]) [µM] | MIC (A. baumannii ATCC 19606; [5]) [µM] | MIC ([1]; converted from μM) [µg/mL] | MIC ([1]; range 0.5 to 500 μM) [µM] | MIC (VRE; converted from μM) [µg/mL] | MIC (VRE; range 0.5 to 500 μM) [µM] | MIC (M. smegmatis MC2-155; [7]) [µg/mL] | MIC (E. coli MC1061; converted from μM) [µg/mL] | MIC (E. coli MC1061; range 0.5 to 500 μM) [µM] | MIC (K. pneumoniae ATCC 27736; [9]) [µM] | MIC (E. cloacae ATCC 13047; [11]) [µM] | MIC (C. albicans ATCC 1237; [12]) [µM] | MIC (C. albicans ATCC 1237; [13]) [µg/mL] | MIC (C. albicans ATCC 10231; [14]) [µM] | MIC (C. albicans ATCC 10231; [15]) [µg/mL] | MIC (C. albicans ATCC 2876; [16]) [µM] | MIC (C. albicans ATCC 2876; [17]) [µg/mL] | MIC (C. albicans ATCC 64124; [18]) [µM] | MIC (C. albicans ATCC 64124; [19]) [µg/mL] | MIC (C. albicans ATCC 1003; [20]) [µM] | also measured
1 | C/C(=N\NC(=N)N)c1cccc(/C(C)=N/NC(=N)N)c1.Cl.Cl [Compound 4H, (2E,2′E)-2,2′-(1,3-Phenylenebis(ethan-1-yl-1-ylidene))bis(hydrazine-1-carboximidamide) dihydrochloride] | 500 | > 500 | 86.8 | 250 | 43.4 | 125 | 5.4 | > 173 | > 500 | > 500 | > 500 | 90.1 | 31.3 | > 90.1 | > 31.3 | 22.5 | 7.8 | > 90.1 | > 31.3 | > 90.1 | MIC (P. aeruginosa ATCC 27853; [2]): 173 µg/mL; MIC (A. baumannii ATCC 19606; [4]): > 173 µg/mL; MIC (MRSA; converted from μM): > 173 µg/mL; MIC (MRSA; range 0.5 to 500 μM): > 500 µM; MIC (S. enterica ATCC 14028; strain J, Gram-negative, converted from μM, read-out: MIC): 21.7 to 86.8 µg/mL; MIC (S. enterica ATCC 14028; [6]): 62.5 to 250 µM; MIC (M. smegmatis MC2-155; Mycolicibacterium smegmatis, MC2155, strain K, range 0.5 to 500 μM): 15.6 to 31.3 µM; MIC (M. smegmatis MC2-155; strain K, range 0.5 to 500 μM, dihydrochloride): (15.6) μM; MIC (K. pneumoniae ATCC 27736; [8]): > 173 µg/mL; MIC (B. subtilis 168; converted from μM): 86.8 µg/mL; MIC (B. subtilis 168; range 0.5 to 500 μM): 250 µM; MIC (E. cloacae ATCC 13047; [10]): > 173 µg/mL; MIC (C. albicans ATCC 1003; [21]): > 31.3 µg/mL; MIC (C. albicans ATCC 90819; [22]): > 90.1 µM; MIC (C. albicans ATCC 90819; [23]): > 31.3 µg/mL; MIC (C. albicans ATCC 2310; [24]): 90.1 µM; MIC (C. albicans ATCC 2310; [25]): 31.3 µg/mL
2 | Cl.Cl.N=C(N)N/N=C/c1ccc(-c2ccc(/C=N/NC(=N)N)cc2)cc1 [Compound 3A, (2E,2′E)-2,2′-([1,1′-Biphenyl]-4,4′-diylbis(methanylylidene))bis(hydrazine-1-carboximidamide) dihydrochloride] | > 500 | > 500 | 0.4 | 1 | 0.8 | 2 | > 198 | > 198 | > 500 | > 500 | > 500 | 39.5 | 15.6 | 39.5 | 15.6 | 19.7 | 7.8 | > 79.2 | > 31.3 | 19.7 | MIC (P. aeruginosa ATCC 27853): > 198 µg/mL; MIC (A. baumannii ATCC 19606): > 198 µg/mL; MIC (MRSA; converted from μM): 1.5 µg/mL; MIC (MRSA; range 0.5 to 500 μM): 3.9 µM; MIC (S. enterica ATCC 14028): > 198 µg/mL; MIC (S. enterica ATCC 14028; [6]): > 500 µM; MIC (M. smegmatis MC2-155; [26]): > 500 µM; MIC (K. pneumoniae ATCC 27736): > 198 µg/mL; MIC (B. subtilis 168; converted from μM): > 198 µg/mL; MIC (B. subtilis 168; range 0.5 to 500 μM): > 500 µM; MIC (E. cloacae ATCC 13047): > 198 µg/mL; MIC (C. albicans ATCC 1003; [21]): 7.8 µg/mL; MIC (C. albicans ATCC 90819; [22]): > 79.2 µM; MIC (C. albicans ATCC 90819; [23]): > 31.3 µg/mL; MIC (C. albicans ATCC 2310; [24]): > 79.2 µM; MIC (C. albicans ATCC 2310; [25]): > 31.3 µg/mL
3 | C/C(=N\NC(=N)N)c1ccc(Oc2ccc(/C(C)=N/NC(=N)N)cc2)cc1.Cl.Cl [Compound 4E, (2E,2′E)-2,2′-((Oxybis(4,1-phenylene))bis(ethan-1-yl-1-ylidene))bis(hydrazine-1 carboximidamide), dihydrochloride] | 62.5 | 62.5 | 27.5 | 62.5 | 1.7 | 3.9 | 54.9 to 110 | 54.9 | 125 | 62.5 | 250 | 17.8 | 7.8 | 17.8 | 7.8 | 8.9 | 3.9 | 17.8 | 7.8 | 17.8 | MIC (P. aeruginosa ATCC 27853; [2]): 27.5 µg/mL; MIC (A. baumannii ATCC 19606; [4]): 27.5 µg/mL; MIC (M. smegmatis MC2-155; [26]): 125 to 250 µM; MIC (K. pneumoniae ATCC 27736; [8]): 27.5 µg/mL; MIC (E. cloacae ATCC 13047; [10]): 110 µg/mL; MIC (C. albicans ATCC 1003; [21]): 7.8 µg/mL; MIC (C. albicans ATCC 90819; [22]): 17.8 µM; MIC (C. albicans ATCC 90819; [23]): 7.8 µg/mL; MIC (C. albicans ATCC 2310; [24]): 17.8 µM; MIC (C. albicans ATCC 2310; [25]): 7.8 µg/mL
4 | C[C@@H]1[C@H](O)[C@@H](C)/C=C/C=C/C=C/C=C/C=C/C=C/C=C/[C@H](O[C@@H]2O[C@H](C)[C@@H](O)[C@H](N)[C@@H]2O)C[C@@H]2O[C@](O)(C[C@@H](O)C[C@@H](O)[C@H](O)CC[C@@H](O)C[C@@H](O)CC(=O)O[C@H]1C)C[C@H](O)[C@H]2C(=O)O [AmB, amphotericin B, reference compound] | – | – | – | – | – | – | – | – | – | – | – | – | – | – | – | – | – | – | – | – | MIC (C. albicans ATCC 1237; C. albicans ATCC 1237, resistant to FLC): 3.9 µg/mL; MIC (C. albicans ATCC 1237; C. albicans ATCC 1237, resistant to FLC, converted from μg/mL): (4.2) μM; MIC (C. albicans ATCC 10231): 3.9 µg/mL; MIC (C. albicans ATCC 10231; converted from μg/mL): (4.2) μM; MIC (C. albicans ATCC 2876): 3.9 µg/mL; MIC (C. albicans ATCC 2876; converted from μg/mL): (4.2) μM; MIC (C. albicans ATCC 64124): 2.0 to 3.9 µg/mL; MIC (C. albicans ATCC 64124; converted from μg/mL): (2.1-4.2) μM; MIC (C. albicans ATCC 1003; C. albicans ATCC 1003, converted from μg/mL): (4.2) μM; MIC (C. albicans ATCC 1003; C. albicans ATCC 1003, range 0.5 to […]): 3.9 µg/mL; MIC (C. albicans ATCC 90819): 2.0 µg/mL; MIC (C. albicans ATCC 90819; converted from μg/mL): (2.1) μM; MIC (C. albicans ATCC 2310): 3.9 µg/mL; MIC (C. albicans ATCC 2310; converted from μg/mL): (4.2) μM
